From ChEMBL document CHEMBL4739717, “Methods of treating cartilage disorders through inhibition of clk and dyrk” (2020)

Tests used:
[1] = biological target: Dual specificity tyrosine-phosphorylation-regulated kinase 1A (Homo sapiens, UniProt Q13627); assay: Inhibition of recombinant DYRK1A (unknown origin) using Ser/Thr 18 peptide as substrate incubated for 1 hr in presence of ATP by FRET assay
[2] = Induction of chondrogenesis in human MSC assessed as maximum activity at 30 nM incubated for 6 days by rhodamine B and Nile red staining based imaging analysis relative to control; assay type: functional; conditions: BMMSC, 144 h, time 6 day
[3] = Effect on Wnt signaling pathway in human SW480 cells harbouring TCF/LEF luciferase reporter gene and SP5-Luc reporter gene incubated for 36 to 48 hrs by luminescence assay; assay type: cell-based
[4] = Inhibition of IL1-beta induced MMP3 expression levels in human chondrocytes assessed as MMP3 levels incubated for 2hrs followed by IL1-beta stimulation and measured after overnight incubation by LANCE assay; assay type: functional, cell-based; conditions: Chondrocyte
[5] = Induction of chondrogenesis in human MSC assessed as incubated for 6 days by rhodamine B and Nile red staining based imaging analysis; assay type: functional; conditions: bmmsc

Compound	EC50 [1]	Emax at 0.03 µM [2]	EC50 [3]	EC50 [4]	EC50 [5]
CN1CCN(c2nccc3[nH]c(-c4n[nH]c5cc(F)c(-c6cnn(C)c6)cc45)nc23)CC1	0.004 µM	113%	0.0857 µM	0.0355 µM	
CC(C)C(=O)Nc1cncc(-c2ccc3[nH]nc(-c4nc5c(-c6ccccc6F)cncc5[nH]4)c3c2)c1	0.01 µM	102%	0.004 µM	3 µM	0.03 µM
CN(C)Cc1cncc(-c2cnc3[nH]nc(-c4nc5c(-c6cccs6)cncc5[nH]4)c3c2)c1	0.009 µM	146%	0.048 µM	3 µM	0.03 µM
O=C(Nc1c[nH]nc1C(=O)Nc1cncc(-c2cccc(F)c2)c1)c1cncc(OC2CCNCC2)c1	0.012 µM	89.5%	1.6 µM	0.339 µM	
O=C(CC1CCNCC1)Nc1cncc(-c2ccc3[nH]nc(-c4cc5c(N6CCCCC6)nccc5[nH]4)c3n2)c1	0.006 µM	21.8%	> 10 µM	1.47 µM	
CN(C)c1cncc(-c2ccc3[nH]nc(-c4nc5c(-c6cccc(F)c6)ccnc5[nH]4)c3n2)c1	0.025 µM	83.8%	0.659 µM		0.01 µM
Cc1cn(-c2nccc3[nH]c(-c4n[nH]c5ccc(-c6cncc(NC(=O)CC(C)C)c6)cc45)nc23)cn1	0.009 µM	73.7%	0.0104 µM		0.03 µM
CCNCc1cncc(-c2cc3c(-c4nc5c(-c6ccsc6)nccc5[nH]4)n[nH]c3cn2)c1	0.002 µM	67.7%	0.0593 µM		0.03 µM
CS(=O)(=O)NCc1cc(F)cc(-c2cncc3[nH]c(-c4n[nH]c5ccc(-c6cncnc6)nc45)cc23)c1	0.076 µM	106%	1.03 µM		0.01 µM
CCC(=O)Nc1cncc(-c2ccc3[nH]nc(-c4nc5c(-c6ccsc6)cncc5[nH]4)c3c2)c1	0.014 µM	203%	0.002 µM		0.03 µM
CC(C)Nc1cncc(-c2ccc3[nH]nc(-c4nc5c(-c6ccoc6)nccc5[nH]4)c3n2)c1	0.018 µM	76.2%	0.297 µM		0.03 µM
CN(C)Cc1cncc(-c2ccc3[nH]nc(-c4cc5c(N6CCCCC6)nccc5[nH]4)c3c2)c1	0.033 µM	220%	4.71 µM		0.01 µM
Cc1ccc(-c2nccc3[nH]c(-c4n[nH]c5cnc(-c6cncc(N)c6)cc45)nc23)s1	0.004 µM	259%	0.0092 µM		0.01 µM
Fc1cccc(-c2cncc3[nH]c(-c4n[nH]c5ncc(-c6cncc(CN7CCCCC7)c6)cc45)cc23)c1	0.074 µM	108%	3.12 µM		0.01 µM
CN(C)Cc1cncc(-c2ccc3[nH]nc(-c4cc5cnccc5[nH]4)c3n2)c1	0.013 µM	119%	1.14 µM		0.03 µM
Nc1cncc(-c2ccc3[nH]nc(-c4cc5c(N6CCCCC6)ccnc5[nH]4)c3c2)c1	0.033 µM	130%	0.604 µM		0.03 µM
Cn1ncc(-c2ccc3cnc(NC(=O)c4cccc(CN5CCCC5)c4)cc3c2)c1CN1CCCCC1		27.6%		1.19 µM	
CC(C)CC(=O)Nc1cncc(-c2ccc3[nH]nc(-c4cc5c(-c6ccncc6)nccc5[nH]4)c3c2)c1	0.025 µM	95.5%	> 10 µM		0.03 µM
CC(C)Nc1cncc(-c2cnc3[nH]nc(-c4nc5c(-c6cc(F)cc(NCCN(C)C)c6)nccc5[nH]4)c3c2)c1	0.005 µM	82.9%	0.154 µM		0.03 µM
CS(=O)(=O)NCc1cc(F)cc(-c2nccc3[nH]c(-c4n[nH]c5ccc(-c6cncnc6)cc45)nc23)c1	0.096 µM	73.1%	0.0405 µM		0.03 µM
CCCC(=O)Nc1cncc(-c2ccc3[nH]nc(-c4nc5c(-c6ccsc6)ccnc5[nH]4)c3c2)c1	0.017 µM	72.6%	0.0077 µM		0.03 µM
CCC(=O)Nc1cncc(-c2cc3c(-c4cc5c(-c6cccc(F)c6)nccc5[nH]4)n[nH]c3cn2)c1	0.045 µM	50.8%	0.305 µM		0.03 µM
Nc1cncc(-c2cnc3[nH]nc(-c4cc5c(-c6ccncc6)nccc5[nH]4)c3c2)c1	0.004 µM	53.5%	> 10 µM		0.03 µM
CC(C)(C)C(=O)Nc1cncc(-c2ccc3[nH]nc(-c4nc5c(-c6ccc(Cl)s6)cncc5[nH]4)c3n2)c1	0.07 µM	84.7%	0.551 µM		0.01 µM

Compound	EC50 [1]	Emax at 0.03 µM [2]	EC50 [3]	EC50 [4]	EC50 [5]
CC(C)Nc1cncc(-c2ccc3[nH]nc(-c4nc5c(-c6cc(F)cc(NCCN(C)C)c6)nccc5[nH]4)c3c2)c1	0.011 µM	85.1%	0.202 µM		0.03 µM
c1cncc(-c2ccc3[nH]nc(-c4cc5c(-c6cccnc6)ccnc5[nH]4)c3n2)c1	0.01 µM	59.2%	> 10 µM		0.1 µM
CN(C)Cc1cncc(-c2cnc3[nH]nc(-c4nc5c(-c6cccc(F)c6)cncc5[nH]4)c3c2)c1	0.005 µM	183%	0.013 µM		0.03 µM
O=C(Nc1cncc(-c2ccc3[nH]nc(-c4cc5c(-c6ccccc6F)nccc5[nH]4)c3c2)c1)C1CCCC1	0.081 µM	70.8%	0.418 µM		0.01 µM
FC1(F)CCN(Cc2cncc(-c3cc4c(-c5nc6c(N7CCCCC7)cncc6[nH]5)n[nH]c4cn3)c2)C1	0.006 µM	100%	0.116 µM		0.01 µM
O=C(Nc1cncc(-c2cnc3[nH]nc(-c4cc5c(-c6ccccc6F)nccc5[nH]4)c3c2)c1)C1CC1	0.02 µM	78.1%	0.321 µM		0.03 µM
CC(C)(C)CC(=O)Nc1cncc(-c2cc3c(-c4cc5c(-c6ccccc6F)nccc5[nH]4)n[nH]c3cn2)c1	0.05 µM	54.3%	1.03 µM		0.03 µM
Fc1ccc(-c2nccc3[nH]c(-c4n[nH]c5ccc(-c6cncc(CN7CCCC7)c6)cc45)cc23)cc1	0.06 µM	98.5%	3.62 µM		0.03 µM
O=C(Nc1cncc(-c2ccc3[nH]nc(-c4nc5c(-c6ccncc6)ccnc5[nH]4)c3n2)c1)C1CCCCC1	0.026 µM	68.6%	0.999 µM		0.01 µM
CCNCc1cncc(-c2cc3c(-c4cc5c(-c6ccccc6F)ccnc5[nH]4)n[nH]c3cn2)c1	0.07 µM	270%	> 10 µM		0.03 µM
Cc1nnc(-c2ccc3cnc(NC(=O)c4ccnc(N(C)C5CCN(C)CC5)c4)cc3c2)s1		25.7%		0.0027 µM	
O=C(Nc1cncc(-c2cc3c(-c4cc5cnccc5[nH]4)n[nH]c3cn2)c1)C1CC1	0.004 µM	58.5%	1.54 µM		0.03 µM
O=C(Nc1cncc(-c2cc3c(-c4cc5c(-c6ccc(F)cc6)nccc5[nH]4)n[nH]c3cn2)c1)C1CC1	0.074 µM	96.2%	0.844 µM		0.03 µM
Cc1ccncc1-c1cc2c(-c3nc4c(-c5cc(F)cc(CNS(C)(=O)=O)c5)ccnc4[nH]3)n[nH]c2cn1	0.056 µM	70%	0.109 µM		0.03 µM
c1cncc(-c2ccc3[nH]nc(-c4nc5c(-c6cccnc6)cncc5[nH]4)c3n2)c1	0.047 µM	83.8%	> 10 µM		0.03 µM
O=C(Cc1ccccc1)Nc1cncc(-c2ccc3[nH]nc(-c4nc5c(-c6ccoc6)cncc5[nH]4)c3c2)c1	0.017 µM	102%	0.033 µM		0.03 µM
O=C(Nc1cncc(-c2cnc3[nH]nc(-c4cc5cnccc5[nH]4)c3c2)c1)c1ccccc1	0.002 µM	69.9%	> 10 µM		0.03 µM
O=C(Nc1cncc(-c2ccc3[nH]nc(-c4nc5c(N6CCCCC6)cncc5[nH]4)c3c2)c1)C1CCC1	0.004 µM	106%	0.039 µM		0.03 µM
CN1CCN(c2cncc3[nH]c(-c4n[nH]c5ccc(-c6cncc(CNCc7ccccc7)c6)cc45)cc23)CC1	0.007 µM	101%	3.29 µM	0.329 µM	0.03 µM
O=C(Nc1cnccc1NC(=O)C1CC1)c1n[nH]c2ccc(-c3cncc(CN4CCCCC4)c3)cc12	0.038 µM	53.7%	0.12 µM		0.03 µM
CN(C)Cc1cncc(-c2cc3c(-c4cc5c(-c6ccncc6)cncc5[nH]4)n[nH]c3cn2)c1	0.02 µM	51.7%	> 10 µM		0.03 µM
O=C(Nc1cncc(-c2cnc3[nH]nc(-c4cc5c(-c6ccncc6)cncc5[nH]4)c3c2)c1)C1CCC1	0.004 µM	43.5%	> 10 µM	0.0179 µM	
CN1CCN(c2nccc3[nH]c(-c4n[nH]c5cnc(-c6cncc(NC(=O)C(C)(C)C)c6)cc45)cc23)CC1	0.003 µM	88.2%	1.88 µM		0.01 µM
Nc1cncc(-c2ccc3[nH]nc(-c4nc5c(-c6ccccc6F)ccnc5[nH]4)c3c2)c1	0.005 µM	113%	0.002 µM		0.03 µM
